In US7078537B2, “Phenylalkyl diamine and amide analogs” (SK Corporation, priority 2001, dated 2006):
Where two headings read alike, the source gives them in different places.

How the values were obtained:
sigma-1 receptor = target: T1, sigma-1 receptor (Cavia porcellus, UniProt Q60492); assay: Sigma-1 binding assay ([3H](+)-pentazocine); settings: guinea pig brain membranes; for inhibition at 0.01 µM: inhibition % at 10 nM, [3H](+)-pentazocine, Table II, read-out: Sigma 1 Inhib. %; for IC50: [3H](+)-pentazocine 2.4 nM, Table I
T1 construct: their whole brains (without cerebellum) were rapidly removed and homogenized; from tissue; host or cells: guinea pig (male Hartley) whole brain without cerebellum, membrane homogenate
T1 sequence (Q60492 whole entry): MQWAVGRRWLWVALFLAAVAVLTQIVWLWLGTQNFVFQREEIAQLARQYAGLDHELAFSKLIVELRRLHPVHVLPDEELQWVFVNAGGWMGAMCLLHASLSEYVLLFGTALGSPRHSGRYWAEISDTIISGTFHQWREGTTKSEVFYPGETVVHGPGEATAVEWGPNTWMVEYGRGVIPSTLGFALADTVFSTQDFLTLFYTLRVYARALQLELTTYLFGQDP
Procedure: (§1) Sigma-1 and Sigma-2 Binding Assay Methods
(§2) Compounds of the present inventions were tested for selective binding to the sigma-1 receptor and sigma-2 receptor as modified from Chaki et al. Eur. J. Pharmacol. 1994, 251, R1. and Akunne et al., Neuropharmacology, 1997, 36(1), 51.
(§3) Tissue Homogenate Preparation for Sigma-1 Binding Assay and Sigma-2 Binding Assay
(§4) Male Hartley guinea pigs each weighing 300–400 g were used in sigma subtype binding assay. Guinea pigs were killed by decapitation and their whole brains (without cerebellum) were rapidly removed and homogenized in 25 volumes(W/V) of ice-cold 50 mM Tris-HCl buffer(pH 7.4 buffer for sigma-1 binding assay and pH 8.0 buffer for sigma-2 binding assay). The homogenate was centrifuged in 48,000×g for 10 min at 4° C. The supernatant was discarded and the resulting pellets were resuspended in the sane volume of buffer and recentrifuged as described above. The pellets were resuspended and washed twice more in the same manner as described above. The final pellets were resuspended in 10 volumes(W/V) of ice-cold 50 mM Tris-HCl buffer to enable distribution of 2 ml aliquot in microcentrifuge tube, which were used immediately or kept at −80° C. for no more than 1 month before use.
Sigma-1 Binding Assay ([^3H](+)pentazocine)
The sigma-1 selective binding assay was performed using [^3H](+)-pentazocine as the radioligand (2.4 nM final concentration unless otherwise specified) and approximately […] of guinea pig brain membranes in a final volume of […] of 50 mM TRISHCl, pH7.4. Non-specific binding was determined in the presence of […]. For the standard equilibrium assay, the mixtures were incubated for 2 hours at 25°, and rapidly filtered over Whatman GF/C glass fiber filters, followed by three 4.5 ml rinses with ice-cold incubation buffer. The filters were placed in counting vials and 4 ml scintillation solution. The vials were counted in a Beckman scintillation counter.
(§5) IC50 values for sigma-1 or -2 binding assay were calculated using KELL RADLIG v.6.0.5.

sigma-2 receptor = target: T2, sigma-2 receptor (Cavia porcellus, UniProt H0V073); assay: Sigma-2 binding assay ([3H]DTG in the presence of (+)-SKF10047); settings: guinea pig brain membranes, read-out: Sigma 2 Inhib. %
T2 construct: their whole brains (without cerebellum) were rapidly removed and homogenized; from tissue; host or cells: guinea pig (male Hartley) whole brain without cerebellum, membrane homogenate
T2 sequence (H0V073 1-176): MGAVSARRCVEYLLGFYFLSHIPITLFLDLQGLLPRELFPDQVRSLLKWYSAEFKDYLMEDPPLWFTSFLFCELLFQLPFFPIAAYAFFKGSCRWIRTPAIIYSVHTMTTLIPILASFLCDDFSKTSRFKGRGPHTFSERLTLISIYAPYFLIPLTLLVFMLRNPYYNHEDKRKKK
Procedure: as §1, §2, §3, §4
Sigma-2 Binding Assay([^3H]DTG)
The Sigma-2 selective binding assay was performed using 3.6 nM[^3H]DTG as the radioligand in the presence of 200 nM (+)-SKF10047 to block the Sigma-1 sites, with […] of guinea pig brain membranes in a total volume of 0.5 ml of 50 mM TRIS-HCl, pH8.0. Non-specific binding was determined in the presence of […]. Incubation condition and other manipulations were as described above for sigma-1 binding assay.
as §5

[1] = inhibition % at 10 nM, [3H]DTG, Table II
[2] = Inhibition % at 10 nM, [3H]DTG 3.6 nM, Table I

| SMILES | inhibition at 0.01 µM (sigma-1 receptor) [%] | inhibition at 0.01 µM (sigma-2 receptor; [1]) [%] | IC50 (sigma-1 receptor) [nM] | inhibition at 0.01 µM (sigma-2 receptor; [2]) [%] |
| --- | --- | --- | --- | --- |
| O=[N+]([O-])c1ccc(S(=O)(=O)NC(CCN2CCC(Cc3ccccc3)CC2)c2ccccc2)c([N+](=O)[O-])c1 (stereo not drawn) | 5.7 | 40.6 |  |  |
| CC(C)(C)c1ccc(CC(N)CN2CCC(C(=O)c3ccccc3)CC2)cc1 (stereo not drawn) | 47.4 | 30 |  |  |
| CNC(CCN1CCC(Cc2ccccc2)CC1)c1ccccc1 (stereo not drawn) | 36.3 | 54.1 |  |  |
| NC(Cc1ccc(Cl)cc1)CN1CCC(C(=O)c2ccc(Cl)c(Cl)c2)CC1 (stereo not drawn) | 24.7 | 51.7 |  |  |
| NC(Cc1ccc(Cl)cc1)CN1CCCCCC1 (stereo not drawn) |  |  | 13.9 | 36.8 |
| O=CNC(Cc1ccc(Cl)c(Cl)c1)CN1CCCCCC1 (stereo not drawn) | 67.7 | 37.8 |  |  |
| CNC(CCN1CCC(C(=O)c2ccc(F)cc2)CC1)c1ccccc1 (stereo not drawn) | 25.2 | 50.5 |  |  |
| NC(Cc1ccccc1)CN1CCC(C(=O)c2ccccc2)CC1 (stereo not drawn) | 33.6 | 34 |  |  |
| NC(Cc1ccc(Cl)c(Cl)c1)CN1CCC(Cc2ccccc2)CC1 (stereo not drawn) | 57.3 | 48.3 |  |  |
| NC(CCN1CCC(C(=O)Cc2ccccc2)CC1)c1ccccc1 (stereo not drawn) | 2.2 | 28.7 |  |  |
| NC(Cc1ccc(C(F)(F)F)cc1)CN1CCCCCC1 (stereo not drawn) |  |  | 2 | 43.9 |
| NC(CCN1CCC(Cc2ccccc2)CC1)c1ccccc1 (stereo not drawn) | 25.5 | 39.7 |  |  |
| NC(CCN1CCC(C(=O)c2ccccc2)CC1)c1ccccc1 (stereo not drawn) | 13.7 | 48.3 |  |  |
| O=[N+]([O-])c1cccc(S(=O)(=O)NC(CCN2CCC(Cc3ccccc3)CC2)c2ccccc2)c1 (stereo not drawn) | 45.7 | 25.7 |  |  |
| CN(C)C(CCN1CCC(Cc2ccccc2)CC1)c1ccccc1 (stereo not drawn) | 20.3 | 57.7 |  |  |
| N[C@@H](Cc1ccccc1)CN1CCC(C(=O)Cc2ccccc2)CC1 | 43.1 | 21.4 |  |  |
| COc1ccc(C(=O)C2CCN(CCC(N)c3ccccc3)CC2)cc1 (stereo not drawn) | 3.2 | 30.9 |  |  |
| NC(Cc1ccc(Cl)cc1)CN1CCC(C(=O)c2cccc(Cl)c2)CC1 (stereo not drawn) | 34.5 | 41.6 |  |  |
| CC(C)(C)c1ccc(CC(N)CN2CCC(Cc3ccccc3)CC2)cc1 (stereo not drawn) | 26.1 | 38.2 |  |  |
| CN(C(=O)Cc1ccc(Cl)c(Cl)c1)C(Cc1ccc(C(C)(C)C)cc1)CN1CCCCCC1 (stereo not drawn) |  |  | 35.7 | 51.4 |
| O=CNC(Cc1ccc(Cl)c(Cl)c1)CN1CCC(Cc2ccccc2)CC1 (stereo not drawn) | 71.9 | 39.9 |  |  |
| O=C(Cc1ccc(Cl)c(Cl)c1)NC(CCN1CCCCCC1)c1ccccc1 (stereo not drawn) |  |  | 10.8 | 27.1 |
| CC(C)(C)c1ccc(CC(CN2CCC(Cc3ccccc3)CC2)NC=O)cc1 (stereo not drawn) | 52.7 | 6.1 |  |  |
| Clc1ccc(CCNC(CCN2CCC(Cc3ccccc3)CC2)c2ccccc2)cc1Cl (stereo not drawn) | 28.8 | 22.6 |  |  |
| NC(Cc1ccc(Cl)cc1)CN1CCC(C(=O)c2ccc(Cl)cc2)CC1 (stereo not drawn) | 23.5 | 34.9 |  |  |
| CN(C)C(Cc1ccc(C(C)(C)C)cc1)CN1CCCCCC1 (stereo not drawn) |  |  | 2.1 |  |

| SMILES | inhibition at 0.01 µM (sigma-1 receptor) [%] | inhibition at 0.01 µM (sigma-2 receptor; [1]) [%] | IC50 (sigma-1 receptor) [nM] | inhibition at 0.01 µM (sigma-2 receptor; [2]) [%] |
| --- | --- | --- | --- | --- |
| NC(CCCN1CCCCCC1)c1ccccc1 (stereo not drawn) | 7.1 | 21.6 |  |  |
| NC(CCCCN1CCCCCC1)c1ccccc1 (stereo not drawn) | 9.3 | 32.5 |  |  |
| CNC(Cc1ccc(C(C)(C)C)cc1)CN1CCC(Cc2ccccc2)CC1 (stereo not drawn) | 63.2 | 57.9 |  |  |
| N[C@@H](Cc1ccccc1)CN1CCC(C(=O)c2ccc(Cl)c(Cl)c2)CC1 | 60.8 | 56.6 |  |  |
| NC(Cc1c(Cl)cccc1Cl)CN1CCCCCC1 (stereo not drawn) | 33.6 | 21.7 |  |  |
| COc1ccc(C(=O)C2CCN(CC(N)Cc3ccc(Cl)cc3)CC2)cc1 (stereo not drawn) | 19.5 | 31 |  |  |
| CNC(Cc1ccc(Cl)cc1Cl)CN1CCC(Cc2ccccc2)CC1 (stereo not drawn) | 75.6 | 75 |  |  |
| O=CNC(Cc1ccc(Cl)cc1Cl)CN1CCC(Cc2ccccc2)CC1 (stereo not drawn) | 74.5 | 24.3 |  |  |
| O=C(NC(CCN1CCC(Cc2ccccc2)CC1)c1ccccc1)c1ccccc1 (stereo not drawn) | 44.3 | 5.2 |  |  |
| NC(Cc1ccc(Cl)c(Cl)c1)CN1CCC(C(=O)c2ccccc2)CC1 (stereo not drawn) | 10.8 | 39.6 |  |  |
| O=CNC(CCN1CCC(Cc2ccccc2)CC1)c1ccccc1 (stereo not drawn) | 28.2 | 26.3 |  |  |
| CNC(Cc1ccc(Cl)c(Cl)c1)CN1CCC(Cc2ccccc2)CC1 (stereo not drawn) | 66.1 | 72.7 |  |  |
| NC(Cc1ccc(Cl)c(Cl)c1)CN1CCC(C(=O)c2ccc(Cl)c(Cl)c2)CC1 (stereo not drawn) | 10.7 | 47.2 |  |  |
| N[C@@H](Cc1ccccc1)CN1CCC(C(=O)c2ccccc2)CC1 | 39.8 | 33.3 |  |  |
| O=S(=O)(NC(CCN1CCC(Cc2ccccc2)CC1)c1ccccc1)c1ccccc1 (stereo not drawn) | 35.6 | 11.4 |  |  |
| CN(C=O)C(CCN1CCC(Cc2ccccc2)CC1)c1ccccc1 (stereo not drawn) | -2 | 26.4 |  |  |
| Clc1ccc(CCNC(CCN2CCCCCC2)c2ccccc2)cc1Cl (stereo not drawn) |  |  | 10.2 | 70.2 |
| N[C@H](Cc1ccccc1)CN1CCC(C(=O)c2ccccc2)CC1 | 11.2 | 16.9 |  |  |
| NC(CCN1CCC(C(=O)c2ccc(Cl)cc2)CC1)c1ccccc1 (stereo not drawn) | 7.9 | 43.7 |  |  |
| NC(Cc1ccc(Cl)cc1Cl)CN1CCCCCC1 (stereo not drawn) | 73.2 | 61 |  |  |
| NC(Cc1ccc(Cl)cc1Cl)CN1CCC(C(=O)c2ccccc2)CC1 (stereo not drawn) | 15.3 | 34.7 |  |  |
| NC(CCN1CCC(C(=O)c2ccc(F)cc2)CC1)c1ccccc1 (stereo not drawn) | -1.9 | 57.3 |  |  |
| O=[N+]([O-])c1ccccc1S(=O)(=O)NC(CCN1CCC(Cc2ccccc2)CC1)c1ccccc1 (stereo not drawn) | 31.6 | 3.1 |  |  |
| N[C@@H](Cc1ccccc1)CN1CCC(C(=O)c2ccc(F)cc2)CC1 | 66.7 | 61.1 |  |  |
| NC(Cc1ccc(Cl)cc1)CN1CCC(C(=O)c2ccc(F)cc2)CC1 (stereo not drawn) | 31.1 | 48.5 |  |  |
| CC(C)(C)c1ccc(CC(CN2CCCCCC2)NCc2ccccc2)cc1 (stereo not drawn) |  |  | 10 |  |
